Test results reported in patent US20230024302A1, “2,3,5-TRISUBSTITUTED PYRAZOLO[1,5-A]PYRIMIDINE COMPOUNDS” (Arcus Biosciences, Inc., priority 2019, published 2023).
Like-named read-outs stand apart in the source and are kept apart here.

Columns and labels:
[1] = molecular target: T1, PI3Kγ (p120γ) (Homo sapiens, UniProt P48736); test: Inhibition of PI3K kinase activity (ADP Glo), PI3Kγ; conditions: read-out: biochemical potency (PI3Kγ IC50)
T1 construct: purchased Promega V1761
Outline: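 Recombinant p120γ (8 nM, 2× stock) was preincubated with compound for 1 h at rt in HEPES pH 7.4, NaCl, MgCl2 and 0.05% BSA. Reaction was started with PIP2 (0.1 mg/ml, 2×) and ATP (50 μM, 2×) and ran 60 min at rt. ADP formed was read by ADP-Glo luminescence, and IC50 came from a 4-parameter fit.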

[2] = molecular target: T2, PI3Kγ (Homo sapiens, UniProt P48736); test: PI3Kγ cellular assay in THP-1 cells (AKT pS473 AlphaLISA); format: cell-based
T2 construct: host or cells: THP-1
T2 sequence (P48736 whole entry): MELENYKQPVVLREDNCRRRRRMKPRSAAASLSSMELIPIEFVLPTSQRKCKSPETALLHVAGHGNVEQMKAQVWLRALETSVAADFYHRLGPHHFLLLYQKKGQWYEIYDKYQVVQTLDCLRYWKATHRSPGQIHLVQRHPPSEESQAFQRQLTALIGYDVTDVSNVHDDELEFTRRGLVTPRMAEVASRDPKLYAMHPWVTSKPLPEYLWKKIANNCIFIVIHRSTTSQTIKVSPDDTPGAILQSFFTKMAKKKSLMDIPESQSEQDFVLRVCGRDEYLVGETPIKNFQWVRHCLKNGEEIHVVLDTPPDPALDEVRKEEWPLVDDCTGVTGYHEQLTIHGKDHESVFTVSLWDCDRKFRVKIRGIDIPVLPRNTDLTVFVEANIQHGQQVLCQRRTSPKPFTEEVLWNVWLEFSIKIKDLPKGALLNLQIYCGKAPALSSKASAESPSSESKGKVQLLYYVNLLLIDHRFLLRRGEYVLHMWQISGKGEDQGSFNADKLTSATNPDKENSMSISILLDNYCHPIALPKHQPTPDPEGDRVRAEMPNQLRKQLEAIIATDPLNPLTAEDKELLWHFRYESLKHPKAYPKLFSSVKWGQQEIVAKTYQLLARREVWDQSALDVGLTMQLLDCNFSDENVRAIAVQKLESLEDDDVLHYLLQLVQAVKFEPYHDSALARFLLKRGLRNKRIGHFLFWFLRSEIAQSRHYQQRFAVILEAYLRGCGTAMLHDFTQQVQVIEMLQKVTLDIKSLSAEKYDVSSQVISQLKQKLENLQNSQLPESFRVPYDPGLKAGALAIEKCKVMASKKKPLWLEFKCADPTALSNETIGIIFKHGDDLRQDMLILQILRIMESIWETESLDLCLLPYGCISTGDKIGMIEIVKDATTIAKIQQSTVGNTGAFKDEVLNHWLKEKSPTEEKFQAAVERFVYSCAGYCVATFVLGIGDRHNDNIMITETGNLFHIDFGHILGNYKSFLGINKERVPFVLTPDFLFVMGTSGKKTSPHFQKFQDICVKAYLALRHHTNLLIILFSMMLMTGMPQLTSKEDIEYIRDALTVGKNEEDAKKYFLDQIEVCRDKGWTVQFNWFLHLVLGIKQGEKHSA
Outline: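 Serum-starved THP-1 cells (1.8×10^5/well, serum-free DMEM) treated with compounds from 4 nM to 30 μM in 2% DMSO, then stimulated and lysed.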

[3] = Table 2, rhMCP-1 stimulated AKT pS473, read-out: cellular potency (PI3Kγ IC50)
[4] = Table 1, rhMCP-1 stimulated AKT pS473, read-out: cellular potency (PI3Kγ IC50)
[5] = AKT pS473, read-out: cellular potency (PI3Kγ IC50)
[6] = Table 6, rhMCP-1 stimulated AKT pS473, read-out: cellular potency (PI3Kγ IC50)

T1 sequence (P48736 whole entry): as above

Cc1cc(-c2ccn3nc(N)c(C(=O)N[C@@H]4CC[C@H](O)C4)c3n2)cc2c1C(=O)N([C@@H](C)C1CC1)C2 [Example 197]
IC50 ([1]; Table 2, p120γ): < 100 nM
IC50 [2, 3]: 100 to 1000 nM

Cc1cc(NC(=O)c2c(N)nn3ccc(-c4cc(C)c5c(c4)CN([C@@H](C)C4CC4)C5=O)nc23)ccc1C(=O)O [Example 293]
IC50 ([1]; Table 2, p120γ): < 100 nM
IC50 [2, 3]: 100 to 1000 nM

C[C@@H](C1CC1)N1Cc2cc(-c3ccn4nc(N)c(C(=O)NC5CC56CC6)c4n3)cc(NS(C)(=O)=O)c2C1=O (stereo partly drawn) [Example 77, 2-[(S)-1-Cyclopropylethyl]-5-(2-amino-3-{(1-spiro[2.2]pentylamino)carbonyl}-1,4,7a-triaza-5-indenyl)-7-(methylsulfonylamino)-1-isoindolinone]
IC50 ([1]; Table 1, p120γ): < 100 nM
IC50 [2, 4]: < 100 nM

C[C@@H](C1CC1)N1Cc2cc(-c3ccn4nc(N)c(C(=O)NC5C6CC7CC5CC(O)(C7)C6)c4n3)cc(NS(C)(=O)=O)c2C1=O (stereo partly shown) [Example 377]
IC50 [1]: < 100 nM
IC50 [2, 5]: < 100 nM

Cc1cc(-c2ccn3nc(N)c(C(=O)N[C@H]4CC[C@H](C(=O)O)CC4)c3n2)cc2c1C(=O)N([C@@H](C)C1CC1)C2 [Example 187]
IC50 ([1]; Table 2, p120γ): < 100 nM
IC50 [2, 3]: 100 to 1000 nM

Cc1cc(-c2ccn3nc(N)c(C(=O)NC[C@H]4C[C@@H](O)C4)c3n2)cc2c1C(=O)N([C@@H](C)C1CC1)C2 [Example 215]
IC50 ([1]; Table 2, p120γ): < 100 nM
IC50 [2, 3]: 100 to 1000 nM

Cc1cc(-c2ccn3nc(N)c(C(=O)N[C@@H](C)C4CC4)c3n2)cc2c1C(=O)N([C@@H](C)C1CC1)C2 [Example 220]
IC50 ([1]; Table 2, p120γ): < 100 nM
IC50 [2, 3]: 100 to 1000 nM

CC(C)[C@H](CO)NC(=O)c1c(N)nn2ccc(-c3cc4c(c(NS(C)(=O)=O)c3)C(=O)N([C@@H](C)C(F)(F)F)C4)nc12 [Example 399]
IC50 [1]: < 100 nM
IC50 [2, 5]: 100 to 1000 nM

Cc1cc(-c2ccn3nc(N)c(C(=O)N[C@@H](CO)c4ccccc4)c3n2)cc2c1C(=O)N([C@@H](C)C1CC1)C2 [Example 192]
IC50 ([1]; Table 2, p120γ): < 100 nM
IC50 [2, 3]: 100 to 1000 nM

Cc1cc(-c2ccn3nc(N)c(C(=O)N4CCOCC4)c3n2)cc2c1C(=O)N(C(C)C1CC1)C2 (stereo not shown) [Example 280]
IC50 ([1]; Table 2, p120γ): < 100 nM
IC50 [2, 3]: > 1000 nM

CC[C@H](N1Cc2cc(-c3ccn4nc(N)c(C(=O)NC5CC5)c4n3)cc(Cl)c2C1=O)C(F)(F)F [Example 449]
IC50 ([1]; Table 6, p120γ): < 100 nM
IC50 [2, 6]: 100 to 1000 nM

Cc1cc(-c2ccn3nc(N)c(C(=O)N4CCCC4CO)c3n2)cc2c1C(=O)N(C(C)C1CC1)C2 (stereo not shown) [Example 289]
IC50 ([1]; Table 2, p120γ): 100 to 1000 nM
IC50 [2, 3]: > 1000 nM

C[C@H](CO)NC(=O)c1c(N)nn2ccc(-c3cc4c(c(OCC(F)(F)F)c3)C(=O)N([C@@H](C)C3CC3)C4)nc12 [Example 156, 2-Amino-5-{2-[(1S)-1-cyclopropylethyl]-1-oxo-7-(2,2,2-trifluoroethoxy)-2,3-dihydro-1H-isoindol-5-yl}-N-[(2R)-1-hydroxypropan-2-yl]pyrazolo[1,5-a]pyrimidine-3-carboxamide]
IC50 ([1]; Table 1, p120γ): < 100 nM
IC50 [2, 4]: < 100 nM

C[C@@H](C1CC1)N1Cc2cc(-c3ccn4nc(N)c(C(=O)Nc5ncn(C)n5)c4n3)cc(NS(C)(=O)=O)c2C1=O [Example 109, 2-Amino-5-{2-[(1S)-1-cyclopropylethyl]-7-methanesulfonamido-1-oxo-2,3-dihydro-1H-isoindol-5-yl}-N-(1-methyl-1H-1,2,4-triazol-3-yl)pyrazolo[1,5-a]pyrimidine-3-carboxamide]
IC50 ([1]; Table 1, p120γ): < 100 nM
IC50 [2, 4]: 100 to 1000 nM

C[C@@H](C1CC1)N1Cc2cc(-c3ccn4nc(N)c(C(=O)Nc5ccc(N)nc5)c4n3)cc(OC(F)(F)F)c2C1=O [Example 46, 2-[(S)-1-Cyclopropylethyl]-5-{2-amino-3-[(6-amino-3-pyridylamino)carbonyl]-1,4,7a-triaza-5-indenyl}-7-trifluoromethoxy-1-isoindolinone]
IC50 ([1]; Table 1, p120γ): < 100 nM
IC50 [2, 4]: < 100 nM

C[C@@H](C1CC1)N1Cc2cc(-c3ccn4nc(N)c(C(=O)Nc5ccc(F)cc5)c4n3)cc(NS(C)(=O)=O)c2C1=O [Example 388]
IC50 [1]: < 100 nM
IC50 [2, 5]: 100 to 1000 nM

COc1cncc(NC(=O)c2c(N)nn3ccc(-c4cc5c(c(NS(C)(=O)=O)c4)C(=O)N([C@@H](C)C4CC4)C5)nc23)c1 [Example 387]
IC50 [1]: < 100 nM
IC50 [2, 5]: 100 to 1000 nM

Cc1cc(-c2ccn3nc(N)c(C(=O)NC4CS(=O)(=O)C4)c3n2)cc2c1C(=O)N([C@@H](C)C1CC1)C2 [Example 241]
IC50 ([1]; Table 2, p120γ): < 100 nM
IC50 [2, 3]: 100 to 1000 nM

Cc1cc(-c2ccn3nc(N)c(C(=O)NC4(C(C)O)CC4)c3n2)cc2c1C(=O)N([C@@H](C)C1CC1)C2 (stereo partly shown) [Example 253]
IC50 ([1]; Table 2, p120γ): < 100 nM
IC50 [2, 3]: 100 to 1000 nM

C[C@@H](C1CC1)N1Cc2cc(-c3ccn4nc(N)c(C(=O)NCC5(O)CC5)c4n3)cc(NS(C)(=O)=O)c2C1=O [Example 381]
IC50 [1]: < 100 nM
IC50 [2, 5]: 100 to 1000 nM

Cc1cc(-c2ccn3nc(N)c(C(=O)NC4CC4)c3n2)cc2c1C(=O)N([C@@H](C)C1CC1)C2 [Example 208]
IC50 ([1]; Table 2, p120γ): < 100 nM
IC50 [2, 3]: 100 to 1000 nM

Cc1cc(-c2ccn3nc(N)c(C(=O)NC4CC4)c3n2)cc2c1C(=O)N(CC1CC1)C2 [Example 307]
IC50 ([1]; Table 2, p120γ): < 100 nM
IC50 [2, 3]: 100 to 1000 nM

COc1ccccc1NC(=O)c1c(N)nn2ccc(-c3cc4c(c(NS(C)(=O)=O)c3)C(=O)N([C@@H](C)C3CC3)C4)nc12 [Example 398]
IC50 [1]: < 100 nM
IC50 [2, 5]: > 1000 nM

Cc1cc(-c2ccn3nc(N)c(C(=O)NCC(N)=O)c3n2)cc2c1C(=O)N([C@@H](C)C1CC1)C2 [Example 236]
IC50 ([1]; Table 2, p120γ): < 100 nM
IC50 [2, 3]: 100 to 1000 nM

Cc1cc(-c2ccn3nc(N)c(C(=O)NC(C)CO)c3n2)cc2c1C(=O)N([C@H](C)c1ccncc1)C2 (stereo partly shown) [Example 330]
IC50 ([1]; Table 2, p120γ): < 100 nM
IC50 [2, 3]: > 1000 nM

Cc1cc(-c2ccn3nc(N)c(C(=O)NCC4(C#N)CC4)c3n2)cc2c1C(=O)N([C@@H](C)C1CC1)C2 [Example 256]
IC50 ([1]; Table 2, p120γ): < 100 nM
IC50 [2, 3]: 100 to 1000 nM

C[C@H](CO)NC(=O)c1c(N)nn2ccc(-c3cc4c(c(NS(C)(=O)=O)c3)C(=O)N([C@@H](C)C3CC3)C4)nc12 [Example 93, 2-Amino-5-{2-[(1S)-1-cyclopropylethyl]-7-methanesulfonamido-1-oxo-2,3-dihydro-1H-isoindol-5-yl}-N-[(2R)-1-hydroxypropan-2-yl]pyrazolo[1,5-a]pyrimidine-3-carboxamide]
IC50 ([1]; Table 1, p120γ): < 100 nM
IC50 [2, 4]: < 100 nM

COc1ccc(NC(=O)c2c(N)nn3ccc(-c4cc5c(c(OC(F)(F)F)c4)C(=O)N([C@@H](C)C4CC4)C5)nc23)cn1 [Example 423]
IC50 ([1]; Table 6, p120γ): < 100 nM
IC50 [2, 6]: 100 to 1000 nM

C[C@@H](C1CC1)N1Cc2cc(-c3ccn4nc(N)c(C(=O)NCc5cccnc5)c4n3)cc(OC(F)(F)F)c2C1=O [Example 414]
IC50 ([1]; Table 6, p120γ): < 100 nM
IC50 [2, 6]: 100 to 1000 nM

CC[C@H](CO)NC(=O)c1c(N)nn2ccc(-c3cc(C)c4c(c3)CN([C@@H](C)C3CC3)C4=O)nc12 [Example 183]
IC50 ([1]; Table 2, p120γ): < 100 nM
IC50 [2, 3]: 100 to 1000 nM

C[C@@H](C1CC1)N1Cc2cc(-c3ccn4nc(N)c(C(=O)NC5CC5)c4n3)cc(OC(F)F)c2C1=O [Example 158, 2-Amino-N-cyclopropyl-5-{2-[(1S)-1-cyclopropylethyl]-7-(difluoromethoxy)-1-oxo-2,3-dihydro-1H-isoindol-5-yl}pyrazolo[1,5-a]pyrimidine-3-carboxamide]
IC50 ([1]; Table 1, p120γ): < 100 nM
IC50 [2, 4]: < 100 nM

Cc1cc(-c2ccn3nc(N)c(C(=O)N4CC(C(C)(C)O)C4)c3n2)cc2c1C(=O)N(C(C)C1CC1)C2 (stereo not shown) [Example 270]
IC50 ([1]; Table 2, p120γ): < 100 nM
IC50 [2, 3]: 100 to 1000 nM

C[C@@H](C1CC1)N1Cc2cc(-c3ccn4nc(N)c(C(=O)Nc5cccc(C#N)c5)c4n3)cc(NS(C)(=O)=O)c2C1=O [Example 386]
IC50 [1]: < 100 nM
IC50 [2, 5]: 100 to 1000 nM

C[C@@H](C1CC1)N1Cc2cc(-c3ccn4nc(N)c(C(=O)N[C@H]5C[C@@](C)(O)C5)c4n3)cc(N3CC[C@@H](O)C3)c2C1=O [Example 432]
IC50 ([1]; Table 6, p120γ): < 100 nM
IC50 [2, 6]: 100 to 1000 nM

C[C@@H](C1CC1)N1Cc2cc(-c3ccn4nc(N)c(C(=O)Nc5cccnc5)c4n3)cc(OC(F)F)c2C1=O [Example 161, 2-Amino-5-{2-[(1S)-1-cyclopropylethyl]-7-(difluoromethoxy)-1-oxo-2,3-dihydro-1H-isoindol-5-yl}-N-(pyridin-3-yl)pyrazolo[1,5-a]pyrimidine-3-carboxamide]
IC50 ([1]; Table 1, p120γ): < 100 nM
IC50 [2, 4]: < 100 nM
